# Calls of active or inactive are those of the source. No cut-off for these calls is given here.
# Legend:
# [1] = target: T1, Macrophage colony-stimulating factor 1 receptor (Homo sapiens, UniProt P07333); test: Inhibition of CSF-1R (unknown origin)
# [2] = target: T2, Macrophage colony-stimulating factor 1 receptor (Mus musculus) (UniProt P09581); test: Inhibition of CSF-1R signaling pathway activation in female C57BL/6 mouse BMDM cells assessed as reduction in CSF-1R phosphorylation at Tyr723 residue at 100 nM preincubated with compounds for 4 hrs followed by M-CSF stimulation and measured after 30 mins by Western blot analysis; format: cell-based; details: time 4.5 hrs
# T2 sequence (whole entry): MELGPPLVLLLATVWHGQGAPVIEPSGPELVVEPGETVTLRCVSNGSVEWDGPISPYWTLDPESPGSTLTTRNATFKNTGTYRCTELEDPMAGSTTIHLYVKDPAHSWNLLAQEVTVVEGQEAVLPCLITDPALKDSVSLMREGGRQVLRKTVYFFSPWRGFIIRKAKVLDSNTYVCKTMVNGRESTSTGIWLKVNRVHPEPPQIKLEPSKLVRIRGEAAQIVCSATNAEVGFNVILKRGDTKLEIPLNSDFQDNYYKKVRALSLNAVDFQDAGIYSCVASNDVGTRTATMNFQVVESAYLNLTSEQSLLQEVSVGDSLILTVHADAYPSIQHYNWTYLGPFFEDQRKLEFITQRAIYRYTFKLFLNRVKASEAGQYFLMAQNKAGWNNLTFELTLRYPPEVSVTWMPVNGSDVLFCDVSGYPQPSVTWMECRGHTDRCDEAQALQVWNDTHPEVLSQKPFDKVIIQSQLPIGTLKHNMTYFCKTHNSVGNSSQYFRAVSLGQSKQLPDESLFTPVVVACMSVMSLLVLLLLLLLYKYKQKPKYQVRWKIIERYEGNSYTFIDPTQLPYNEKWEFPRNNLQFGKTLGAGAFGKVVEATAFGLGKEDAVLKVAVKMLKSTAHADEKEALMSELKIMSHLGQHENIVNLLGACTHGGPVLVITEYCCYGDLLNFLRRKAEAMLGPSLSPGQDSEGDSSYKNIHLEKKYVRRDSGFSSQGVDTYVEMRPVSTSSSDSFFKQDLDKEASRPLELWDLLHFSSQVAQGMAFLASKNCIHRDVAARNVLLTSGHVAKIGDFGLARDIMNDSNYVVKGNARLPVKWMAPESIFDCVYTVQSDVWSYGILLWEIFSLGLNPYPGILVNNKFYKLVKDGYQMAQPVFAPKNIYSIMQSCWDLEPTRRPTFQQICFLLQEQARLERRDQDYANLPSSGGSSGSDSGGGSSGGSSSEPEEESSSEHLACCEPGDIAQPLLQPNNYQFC
# [3] = target: T2, Macrophage colony-stimulating factor 1 receptor (Mus musculus); test: Inhibition of CSF-1R signaling pathway activation in female C57BL/6 mouse BMDM cells assessed as reduction in CSF-1R phosphorylation preincubated with compounds for 4 hrs followed by M-CSF stimulation and measured after 30 mins by Western blot analysis; format: cell-based; details: dose 10-100 nM, time 4.5 hrs
# [4] = target: T2, Macrophage colony-stimulating factor 1 receptor (Mus musculus); test: Inhibition of CSF-1R signaling pathway activation in female C57BL/6 mouse BMDM cells assessed as reduction in AKT phosphorylation preincubated with compounds for 4 hrs followed by M-CSF stimulation and measured after 30 mins by Western blot analysis; format: cell-based; details: dose 10-100 nM, time 4.5 hrs
# [5] = target: T1, Macrophage colony-stimulating factor 1 receptor; test: Binding affinity to recombinant CSF-1R (unknown origin) assessed as equilibrium dissociation constant by SPR analysis
# [6] = target: T1, Macrophage colony-stimulating factor 1 receptor; test: Binding affinity to recombinant CSF-1R (unknown origin) assessed as association rate constant by SPR analysis
# [7] = target: T1, Macrophage colony-stimulating factor 1 receptor; test: Binding affinity to recombinant CSF-1R (unknown origin) assessed as dissociation rate constant by SPR analysis
# BMDM [8] = test: Induction of repolarization of M2 like macrophage into M1 phenotype in female C57BL/6 mouse BMDM cells assessed as decrease in Arg1 mRNA expression at 10 to 100 nM stimulated with mouse IL4/IL-13 for 24 hrs followed by compound addition and measured after 24 hrs by qPCR analysis; format: functional, cell-based; details: dose 10-100 nM
# BMDM [9] = test: Induction of repolarization of M2 like macrophage into M1 phenotype in female C57BL/6 mouse BMDM cells assessed as decrease in Chil3l mRNA expression at 10 to 100 nM stimulated with mouse IL4/IL-13 for 24 hrs followed by compound addition and measured after 24 hrs by qPCR analysis; format: functional, cell-based; details: dose 10-100 nM
# MC-38 [10] = test: Induction of apoptosis in mouse MC38 cells cocultured with condition medium of M2 macrophages assessed as late apoptotic cells at 30 nM by Annexin V/PI staining based flow cytometric analysis (reference value: 1.66 %); format: functional
# MC-38 [11] = test: Inhibition of cell viability in mouse MC38 cells cocultured with condition medium of M2 macrophages at 10 to 100 nM by MTT assay; format: functional, cell-based; details: dose 10-100 nM
# MC-38 [12] = test: Induction of apoptosis in mouse MC38 cells assessed as early apoptotic cells at 30 nM by Annexin V/PI staining based flow cytometric analysis (reference value: 1.91 %); format: functional
# MC-38 [13] = test: Induction of apoptosis in mouse MC38 cells assessed as early apoptotic cells at 100 nM by Annexin V/PI staining based flow cytometric analysis (reference value: 1.91 %); format: functional
# MC-38 [14] = test: Induction of apoptosis in mouse MC38 cells assessed as late apoptotic cells at 100 nM by Annexin V/PI staining based flow cytometric analysis (reference value: 0.85 %); format: functional
# [15] = AUC (0 to t) in Sprague-Dawley rat at 1 mg/kg, iv; format: ADME, organism-based; details: in vivo
# [16] = MRT (0 to t) in Sprague-Dawley rat at 1 mg/kg, iv; format: ADME, organism-based; details: in vivo
# [17] = Clearance in Sprague-Dawley rat at 1 mg/kg, iv; format: ADME, organism-based; details: in vivo
# [18] = Tmax in Sprague-Dawley rat at 10 mg/kg, po; format: ADME, organism-based; details: in vivo
# [19] = AUC (0 to infinity) in Sprague-Dawley rat at 10 mg/kg, po; format: ADME, organism-based; details: in vivo
# [20] = Oral bioavailability in Sprague-Dawley rat at 10 mg/kg; format: ADME, organism-based; details: in vivo
# [21] = Toxicity in C57BL/6 mouse model allografted with mouse MC38 cells assessed as body weight loss at 10 to 20 mg/kg, ip administered once daily for 14 days; format: organism-based; details: in vivo, 336 h, dose 10-20 mg/kg, time 14 day
# MC-38 [22] = test: Antitumor activity against mouse MC38 cells allografted in C57BL/6 mouse model assessed as downregulation of Chil3l mRNA expression in tumor at 10 to 20 mg/kg, ip administered once daily for 14 days by qPCR analysis; format: functional, organism-based; details: dose 10-20 mg/kg, time 14.0 day
# MC-38 [23] = test: Antitumor activity against mouse MC38 cells allografted in C57BL/6 mouse model assessed as downregulation of […] mRNA expression in tumor at 10 to 20 mg/kg, ip administered once daily for 14 days by qPCR analysis; format: functional, organism-based; details: dose 10-20 mg/kg, time 14.0 day
# MC-38 [24] = test: Antitumor activity against mouse MC38 cells allografted in C57BL/6 mouse model assessed as upregulation of Tnf mRNA expression in tumor at 10 to 20 mg/kg, ip administered once daily for 14 days by qPCR analysis; format: functional, organism-based; details: dose 10-20 mg/kg, time 14.0 day
# MC-38 [25] = test: Antitumor activity against mouse MC38 cells allografted in C57BL/6 mouse model assessed as upregulation of Il6 mRNA expression in tumor at 10 to 20 mg/kg, ip administered once daily for 14 days by qPCR analysis; format: functional, organism-based; details: dose 10-20 mg/kg, time 14.0 day
# T1 sequence (P07333 whole entry): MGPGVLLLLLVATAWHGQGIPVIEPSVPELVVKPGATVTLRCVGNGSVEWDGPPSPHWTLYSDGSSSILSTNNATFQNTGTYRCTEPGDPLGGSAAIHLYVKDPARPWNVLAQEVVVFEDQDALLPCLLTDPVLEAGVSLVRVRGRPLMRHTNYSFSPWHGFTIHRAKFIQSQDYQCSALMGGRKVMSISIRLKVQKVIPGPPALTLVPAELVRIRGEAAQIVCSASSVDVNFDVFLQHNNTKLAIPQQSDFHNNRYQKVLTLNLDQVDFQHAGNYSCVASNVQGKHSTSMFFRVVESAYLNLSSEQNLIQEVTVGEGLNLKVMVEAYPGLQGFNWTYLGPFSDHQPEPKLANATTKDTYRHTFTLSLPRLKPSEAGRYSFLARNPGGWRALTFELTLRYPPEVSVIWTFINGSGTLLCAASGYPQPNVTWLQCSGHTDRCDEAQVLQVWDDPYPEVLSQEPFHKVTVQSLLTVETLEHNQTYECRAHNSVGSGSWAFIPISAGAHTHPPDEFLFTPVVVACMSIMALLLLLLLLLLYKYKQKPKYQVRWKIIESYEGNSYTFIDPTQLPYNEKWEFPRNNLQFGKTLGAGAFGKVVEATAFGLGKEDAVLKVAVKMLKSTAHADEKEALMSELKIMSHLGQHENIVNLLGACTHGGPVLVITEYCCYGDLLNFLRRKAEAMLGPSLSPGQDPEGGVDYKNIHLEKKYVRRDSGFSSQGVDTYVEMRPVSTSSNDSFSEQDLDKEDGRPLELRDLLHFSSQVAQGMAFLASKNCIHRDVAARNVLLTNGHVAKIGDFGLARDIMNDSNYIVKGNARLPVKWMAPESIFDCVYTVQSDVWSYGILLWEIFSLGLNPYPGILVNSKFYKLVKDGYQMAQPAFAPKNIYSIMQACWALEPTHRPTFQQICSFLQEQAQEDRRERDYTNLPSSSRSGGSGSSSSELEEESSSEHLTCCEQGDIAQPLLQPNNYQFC
smiles,measurement,setting,value
Cc1nc(NC(=O)N[C@@H]2CCCC[C@H]2O)ccc1Oc1c[nH]c2ncc(Cl)cc12,IC50,[1],20.1 nM
same,inhibition,[2],Active
same,inhibition,[3],Dose-dependent-effect
same,inhibition,[4],Dose-dependent-effect
same,Kd,[5],2.96 nM
same,Ka,[6],1.07 10^5/Ms
same,koff,[7],0.00315 s⁻¹
same,Activity,BMDM [8],Active
same,Activity,BMDM [9],Active
same,Activity,MC-38 [10],4.88%
same,inhibition,MC-38 [11],Active
same,Activity,MC-38 [12],1.71%
same,Activity,MC-38 [13],2.03%
same,Activity,MC-38 [14],1.01%
same,AUC(0-t),[15],526 ng·h/mL
same,MRT last,[16],1.6 h
same,clearance,[17],31.9 mL/min/kg
same,Tmax,[18],1.13 h
same,AUC(0-inf),[19],4170 ng·h/mL
same,bioavailability,[20],79.2%
same,Activity,[21],Non-toxic
same,Activity,MC-38 [22],Active
same,Activity,MC-38 [23],Active
same,Activity,MC-38 [24],Active
same,Activity,MC-38 [25],Active

# From ChEMBL document CHEMBL6103622 (J Med Chem, 2025)
